The test system of data set [1] is canonical Wnt signaling. As to the kind of experiment: Renal fibrosis in STZ-induced diabetic CD-1 mice treated with Wnt inhibitor. Type of data set: in vivo. As for the experimental part: (§1) All experiments were performed in accordance with the National Institute of Health (NIH) Guidelines for the Care of Laboratory Animals. Mice lacking the endothelial glucocorticoid receptor (GR) (known as GR^ECKO) and those lacking this receptor on the Apo E null background (DKO) were generated as previously described (6). The induction of diabetes in CD-1 mice and C57B/L6 mice was performed according to previously established experimental protocols (38-42). Briefly, diabetes was induced in 10-week-old GR^ECKO mice with five consecutive intraperitoneal (IP) doses of streptozotocin (STZ) 50 mg/kg in 10 mmol/L citrate buffer (pH 4.5). Wnt inhibitor (LGK974) was provided to GR^ECKO and control littermate at 5 mg/kg at a frequency of six doses per week for 8 weeks (43). Etomoxir (20 mg/kg) and c75 (15 mg/kg) were dosed (ip) three times per week for 3 weeks in the GR^ECKO and control littermate. A single IP dose of 200 mg/kg STZ was used to induce diabetes in CD-1 mice. Fenofibrate (100 mg/kg), simvastatin (40 mg/kg), were dosed orally for 4 weeks in diabetic CD-1 mice. All mice were sacrificed after 4 weeks of treatment and tissues and blood were harvested. Urine albumin levels were assayed using a Mouse Albumin ELISA Kit (Exocell, Philadelphia, Pa.).
(§2) A point-counting method was utilized to evaluate the relative area of the mesangial matrix. PAS-stained glomeruli from each mouse were analyzed using a digital microscope screen grid containing 540 (27×20) points. Masson's trichrome-stained images were evaluated by ImageJ software, and the fibrotic areas were estimated.
(§3) Deparaffinized sections were incubated with picrosirius red solution for 1 hour at room temperature. The slides were washed twice with acetic acid solution for 30 seconds per wash. The slides were then dehydrated in absolute alcohol three times, cleared in xylene, and mounted with a synthetic resin. Sirius red staining was analyzed using ImageJ software, and fibrotic areas were quantified.
Paraffin-embedded kidney sections (5 μm thick) were deparaffinized and rehydrated (2 min in xylene, four times; 1 min in 100% ethanol, twice; 1 min in 95% ethanol; 45 s in 70% ethanol; and 1 min in distilled water), and the antigen was retrieved in a 10 mM citrate buffer pH 6 at 98° C. for 60 min. To block the endogenous peroxidase, all sections were incubated in 0.3% hydrogen peroxide for 10 min. The immunohistochemistry was performed using a Vectastain ABC Kit (Vector Laboratories, Burlingame, Calif.). Mouse anti-[…] antibody (1:100) and CPT1a (Abnova; H00001374-DO1P; 1:100) antibody was used. In the negative controls, the primary antibody was omitted and replaced with the blocking solution.
(§4) Frozen kidney sections (5 μm) were used for immunofluorescence; double positive labeling with CD31/αSMA, CD31/TGFβR1 and E-cadherin/αSMA was measured. Briefly, frozen sections were dried and placed in acetone for 10 min at −30° C. Once the sections were dried, they were washed twice in phosphate-buffered saline (PBS) for 5 min and then blocked in 2% bovine serum albumin/PBS for 30 min at room temperature. Thereafter, the sections were incubated in primary antibody (1:100) for 1 hour and washed in PBS (5 min) three times. Next, the sections were incubated with the secondary antibodies for 30 min, washed with PBS three times (5 min each), and mounted with mounting medium with DAPI (Vector Laboratories, Burlingame, Calif.). The immune-labeled sections were analyzed by fluorescence microscopy. For each mouse, original magnification of ×400 pictures were obtained from six different areas, and quantification was performed.
To determine whether inhibition of the Wnt signaling pathway could ameliorate the observed fibrosis, LGK974, a small molecule inhibitor of all secreted Wnts (43), was utilized. FIGS. 21A-21B depict the schematic diagram showing the experimental protocol for LGK974 treatment in diabetic CD-1 and UUO mice.

Data set [2] concerns canonical Wnt signaling. As to the kind of experiment: Renal fibrosis in diabetic GR^ECKO and control littermate mice treated with Wnt inhibitor. Type of data set: in vivo. Here is the method: as §1, §2, §3, §4
Frozen sections (5 μm) were used for the detection of EndMT and EMT. Cells undergoing EndMT were detected by double-positive labeling for CD31 and αSMA and/or TGFβR1. Cells undergoing EMT were detected by double-positive labeling for E-cadherin and αSMA. Sections were analyzed and quantified by fluorescence microscopy.
To determine whether Wnt inhibition could mitigate the renal fibrosis observed in diabetic mice lacking endothelial GR, a cohort of animals was treated with the Wnt inhibitor, LGK974. At the age of 8 weeks, control and GR^ECKO mice were injected with STZ 50 mg/kg for five consecutive days. Sixteen weeks after injection, LGK974 was administered by oral gavage for eight additional weeks (FIG. 16A).

The mark [3] stands for this setting: diabetic CD-1 mice, LGK974 5 mg/kg.
Setting [4] is: diabetic control vs diabetic GR^ECKO mice.

SMILES strings stand for the structures. “Also recorded” adds a separate entry of the source.

For the molecule `Cc1cc(-c2ncc(CC(=O)Nc3ccc(-c4cnccn4)cn3)cc2C)ccn1` [LGK974], in the data set on canonical Wnt signaling [1] (setting [3]), the ECM deposition entry is “greatly diminished”, the collagen accumulation result is listed as “greatly diminished”, the glomerulosclerosis result is recorded as “greatly diminished” and the relative area fibrosis entry is given as “greatly diminished”. In the data set with canonical Wnt signaling [1] (diabetic mice, kidney CD31-positive cells), the “endothelial GR level” value is “significantly restored”. Also, the “level of β-catenin” value with canonical Wnt signaling [1] (diabetic mice, kidney immunohistochemistry) is “suppressed”. Further, the “canonical Wnt signaling” value in the data set on canonical Wnt signaling [1] (mouse model of diabetic kidney disease) is on record as “clearly suppressed”. Further, the fibrogenic phenotype result in the data set on canonical Wnt signaling [1] (mouse model of diabetic kidney disease (b57 legend also UUO mice)) is “substantially improved; also recorded: abolishes the fibrogenic phenotype”. Moreover, the “effect on Wnt signaling, fibrogenic phenotype and endothelial GR level in GR^ECKO” value in the data set on canonical Wnt signaling [2] (GR^ECKO vs mouse model of diabetic kidney disease) is reported as “less evident”. Also, the body weight result with canonical Wnt signaling [2] (at sacrifice, among the groups, LGK974 oral gavage 8 weeks) is “no differences”. Moreover, the “level of EMT (E-cadherin/αSMA co-positive cells)” value with canonical Wnt signaling [2] (control and diabetic GR^ECKO mice) is “significantly reduced”. Besides, the renal fibrosis result in the data set with canonical Wnt signaling [2] (diabetic GR^ECKO and DKO mice (legend of FIG. 16)) is listed as “partially abrogates the renal fibrosis”. Also, the kidney weight result with canonical Wnt signaling [2] (diabetic GR^ECKO and diabetic control mice) is on record as “significant reduction”. In the data set with canonical Wnt signaling [2] (diabetic GR^ECKO mice), the “EndMT (CD31/αSMA co-positive cells)” value is listed as “less pronounced”; the “relative area of fibrosis” value was “less pronounced, though still significant”; the relative collagen deposition result is listed as “less pronounced, though still significant”; the tubular damage result is reported as “less pronounced, though still significant”. Further, in the data set on canonical Wnt signaling [2] (diabetic control mice), the “EndMT (CD31/αSMA co-positive cells)” value is “significantly suppressed”, the “relative area of fibrosis” value is given as “clearly improved”, the relative collagen deposition entry is on record as “clearly improved” and the tubular damage entry is listed as “clearly improved”. In the data set with canonical Wnt signaling [2] (setting [4]), the staining of fibronectin result is recorded as “A similar pattern was observed” and the “staining of β-catenin” value was “A similar pattern was observed”.
